From patent US20250135006A1, “AMPHIPHILIC TLR7/8 ADJUVANTS AND USES THEREOF” (Pfizer Inc., priority 2023, published 2025) come the findings set out here.

Test [1] concerns the target T1, human toll like receptor 7 (hTLR7) (Homo sapiens, UniProt Q9NYK1).
T1 construct: host or cells: HEK293 (HEK-Blue hTLR7)
T1 sequence (Q9NYK1 27-1049): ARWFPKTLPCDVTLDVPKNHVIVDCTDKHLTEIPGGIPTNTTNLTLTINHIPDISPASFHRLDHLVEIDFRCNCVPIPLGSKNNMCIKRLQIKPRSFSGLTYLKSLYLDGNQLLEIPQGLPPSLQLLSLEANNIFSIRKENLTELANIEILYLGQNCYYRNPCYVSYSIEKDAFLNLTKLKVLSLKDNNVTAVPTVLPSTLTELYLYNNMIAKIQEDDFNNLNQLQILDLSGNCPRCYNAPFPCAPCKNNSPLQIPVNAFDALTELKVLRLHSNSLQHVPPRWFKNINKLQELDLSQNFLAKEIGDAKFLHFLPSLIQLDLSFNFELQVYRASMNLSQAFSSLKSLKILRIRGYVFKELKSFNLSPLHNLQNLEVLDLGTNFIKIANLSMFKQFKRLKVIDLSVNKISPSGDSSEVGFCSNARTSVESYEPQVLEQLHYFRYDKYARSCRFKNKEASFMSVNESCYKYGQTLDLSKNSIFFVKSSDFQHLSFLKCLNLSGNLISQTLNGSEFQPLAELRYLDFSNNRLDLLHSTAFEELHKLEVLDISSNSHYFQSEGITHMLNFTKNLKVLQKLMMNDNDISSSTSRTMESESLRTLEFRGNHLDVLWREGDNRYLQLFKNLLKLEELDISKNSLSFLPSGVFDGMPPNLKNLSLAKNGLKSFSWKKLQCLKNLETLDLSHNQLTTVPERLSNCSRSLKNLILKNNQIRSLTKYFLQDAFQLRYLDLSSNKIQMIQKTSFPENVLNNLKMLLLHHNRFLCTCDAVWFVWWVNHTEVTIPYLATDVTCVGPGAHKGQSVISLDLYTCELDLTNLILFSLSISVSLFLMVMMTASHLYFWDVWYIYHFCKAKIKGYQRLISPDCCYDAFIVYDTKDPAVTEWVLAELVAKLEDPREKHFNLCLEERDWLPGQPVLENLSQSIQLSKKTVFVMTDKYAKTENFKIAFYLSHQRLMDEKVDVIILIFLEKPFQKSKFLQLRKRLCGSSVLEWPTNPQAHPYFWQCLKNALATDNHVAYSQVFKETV
Briefly: hTLR7 in-vitro functional assay (HEK-Blue hTLR7 SEAP reporter). Type of test: cell-based. The conditions noted are these: HEK-Blue hTLR7 cells, overnight incubation.

For test [2], the target named is T2, human toll like receptor 8 (hTLR8) (Homo sapiens, UniProt Q9NR97).
T2 construct: host or cells: HEK293 (HEK-Blue hTLR8)
T2 sequence (Q9NR97 27-1041): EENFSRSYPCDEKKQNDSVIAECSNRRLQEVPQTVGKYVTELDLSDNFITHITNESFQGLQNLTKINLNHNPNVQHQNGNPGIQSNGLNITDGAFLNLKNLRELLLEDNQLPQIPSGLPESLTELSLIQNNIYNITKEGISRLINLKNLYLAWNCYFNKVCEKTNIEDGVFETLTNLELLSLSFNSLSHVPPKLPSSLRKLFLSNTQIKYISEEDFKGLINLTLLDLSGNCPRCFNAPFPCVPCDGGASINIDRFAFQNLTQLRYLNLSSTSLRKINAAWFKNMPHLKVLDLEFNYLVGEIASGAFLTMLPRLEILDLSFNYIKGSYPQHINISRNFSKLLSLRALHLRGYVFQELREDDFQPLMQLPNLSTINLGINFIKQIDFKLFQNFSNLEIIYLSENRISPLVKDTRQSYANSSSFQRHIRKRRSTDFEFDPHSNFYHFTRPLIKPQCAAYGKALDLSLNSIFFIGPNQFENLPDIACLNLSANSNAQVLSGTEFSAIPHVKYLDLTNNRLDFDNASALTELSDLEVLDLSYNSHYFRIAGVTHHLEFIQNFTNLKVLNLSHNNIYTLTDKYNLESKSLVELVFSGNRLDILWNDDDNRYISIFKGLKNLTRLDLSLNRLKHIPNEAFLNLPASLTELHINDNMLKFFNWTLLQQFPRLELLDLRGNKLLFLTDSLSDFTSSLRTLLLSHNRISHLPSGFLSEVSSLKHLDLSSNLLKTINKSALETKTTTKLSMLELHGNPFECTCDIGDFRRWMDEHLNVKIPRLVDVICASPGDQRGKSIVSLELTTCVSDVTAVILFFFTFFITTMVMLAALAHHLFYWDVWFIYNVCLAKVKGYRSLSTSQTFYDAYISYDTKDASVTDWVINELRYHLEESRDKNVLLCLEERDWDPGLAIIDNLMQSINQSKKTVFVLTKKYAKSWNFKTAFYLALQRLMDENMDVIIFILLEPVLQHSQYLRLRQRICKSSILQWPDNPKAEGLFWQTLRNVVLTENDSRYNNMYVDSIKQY
Briefly: hTLR8 in-vitro functional assay (HEK-Blue hTLR8 SEAP reporter). It is filed as cell-based. Particulars: HEK-Blue hTLR8 cells, overnight incubation.

For the compound `CCCCc1nc2c(N)nc3cc(CCCN4CCN(C(=O)CCOCCOCCOCCOCCOCCOCCOCCOCCOCCOCCOCCOCCOCCOCCOCCOCCOCCOCCOCCOCCOCCOCCOCCOCCNC(=O)O[C@H]5CC[C@@]6(C)C(=CC[C@H]7[C@@H]8CC[C@H]([C@H](C)CCCC(C)C)[C@@]8(C)CC[C@@H]76)C5)CC4)ccc3c2n1CC(C)(CO)CO` [Compound 9, (3beta)-cholest-5-en-3-yl {75-[4-(3-{4-amino-2-butyl-1-[3-hydroxy-2-(hydroxymethyl)-2-methylpropyl]-1H-imidazo[4,5-c]quinolin-7-yl}propyl)piperazin-1-yl]-75-oxo-3,6,9,12,15,18,21,24,27,30,33,36,39,42,45,48,51,54,57,60,63,66,69,72-tetracosaoxapentaheptacont-1-yl}carbamate], the values for the EC50 in test [1] and in test [2] were 181 nM and 16000 nM, respectively.
In the same order, the values of `CCCCc1nc2c(N)nc3cc(CCCN4CCN(Cc5ccc(NC(=O)[C@H](C)NC(=O)[C@@H](NC(=O)COCCOCCNC(=O)O[C@H]6CC[C@@]7(C)C(=CC[C@H]8[C@@H]9CC[C@H]([C@H](C)CCCC(C)C)[C@@]9(C)CC[C@@H]87)C6)C(C)C)cc5)CC4)ccc3c2n1CC(C)(CO)CO` [Compound 27, (3beta)-cholest-5-en-3-yl {(2S,5S)-1-((4-((4-(3-(4-amino-2-butyl-1-(3-hydroxy-2-(hydroxymethyl)-2-methylpropyl)-1H-imidazo[4,5-c]quinolin-7-yl)propyl)piperazin-1-yl)methyl)phenyl)amino)-5-isopropyl-2-methyl-1,4,7-trioxo-9,12-dioxa-3,6-diazatetradecan-14-yl}carbamate] are 3100 nM and 2970 nM.
The like results for `CCCCc1nc2c(N)nc3cc(CCCN4CCN(C(=O)CCOCCOCCOCCOCCOCCOCCOCCOCCOCCOCCOCCOCCOCCOCCOCCOCCOCCOCCOCCOCCOCCOCCOCCOCCOCCOCCOCCOCCOCCOCCOCCOCCOCCOCCOCCOCCNC(=O)CCOCCOCCOCCOCCNC(=O)O[C@H]5CC[C@@]6(C)C(=CC[C@H]7[C@@H]8CC[C@H]([C@H](C)CCCC(C)C)[C@@]8(C)CC[C@@H]76)C5)CC4)ccc3c2n1CC(C)(CO)CO` [Compound 3, (3beta)-cholest-5-en-3-yl {127-[4-(3-{4-amino-2-butyl-1-[3-hydroxy-2-(hydroxymethyl)-2-methylpropyl]-1H-imidazo[4,5-c]quinolin-7-yl}propyl)piperazin-1-yl]-15,127-dioxo-3,6,9,12,19,22,25,28,31,34,37,40,43,46,49,52,55,58,61,64,67,70,73,76,79,82,85,88,91,94,97,100,103,106,109,112,115,118,121,124-tetracontaoxa-16-azaheptacosahect-1-yl}carbamate] were, in that order, 53 nM and 339 nM.
With `CCCCc1nc2c(N)nc3cc(CCCN4CCN(CCCOCCOCCOCCOCCOCCOCCOCCOCCOCCOCCOCCOCCOCCOCCOCCOCCOCCOCCOCCOCCOCCOCCOCCOCCNC(=O)CCOCCOCCOCCOCCNC(=O)O[C@H]5CC[C@@]6(C)C(=CC[C@H]7[C@@H]8CC[C@H]([C@H](C)CCCC(C)C)[C@@]8(C)CC[C@@H]76)C5)CC4)ccc3c2n1CC(C)(CO)CO` [Compound 17, (3beta)-cholest-5-en-3-yl {91-[4-(3-{4-amino-2-butyl-1-[3-hydroxy-2-(hydroxymethyl)-2-methylpropyl]-1H-imidazo[4,5-c]quinolin-7-yl}propyl)piperazin-1-yl]-15-oxo-3,6,9,12,19,22,25,28,31,34,37,40,43,46,49,52,55,58,61,64,67,70,73,76,79,82,85,88-octacosaoxa-16-azahennonacont-1-yl}carbamate], the EC50 (in general, the concentration giving half of the maximal effect) in test [1] was determined as 282 nM; in test [2], 2610 nM.
As to `CCCCc1nc2c(N)nc3cc(CCCN4CCN(CCCOCCOCCOCCOCCOCCOCCOCCOCCOCCOCCOCCOCCOCCOCCOCCOCCOCCOCCOCCOCCOCCOCCOCCOCCNC(=O)CCOCCOCCOCCOCCNC(=O)CCCOc5c(C)c(C)c6c(c5C)CC[C@@](C)(CCC[C@H](C)CCC[C@H](C)CCCC(C)C)O6)CC4)ccc3c2n1CC(C)(CO)CO` [Compound 26, N-{75-[4-(3-{4-amino-2-butyl-1-[3-hydroxy-2-(hydroxymethyl)-2-methylpropyl]-1H-imidazo[4,5-c]quinolin-7-yl}propyl)piperazin-1-yl]-3,6,9,12,15,18,21,24,27,30,33,36,39,42,45,48,51,54,57,60,63,66,69,72-tetracosaoxapentaheptacontan-1-yl}-17-oxo-20-({(2R)-2,5,7,8-tetramethyl-2-[(4R,8R)-4,8,12-trimethyltridecyl]-3,4-dihydro-2H-1-benzopyran-6-yl}oxy)-4,7,10,13-tetraoxa-16-azaicosan-1-amide], the EC50 in test [1] was 404 nM; in test [2], more than 25000 nM.
In the same order, the values of `CCCCc1nc2c(N)nc3cc(CCCN4CCN(CCCOCCNC(=O)O[C@H]5CC[C@@]6(C)C(=CC[C@H]7[C@@H]8CC[C@H]([C@H](C)CCCC(C)C)[C@@]8(C)CC[C@@H]76)C5)CC4)ccc3c2n1CC(C)(CO)CO` [Compound 10, (3beta,20R)-cholest-5-en-3-yl (2-{3-[4-(3-{4-amino-2-butyl-1-[3-hydroxy-2-(hydroxymethyl)-2-methylpropyl]-1H-imidazo[4,5-c]quinolin-7-yl}propyl)piperazin-1-yl]propoxy}ethyl)carbamate] are 186 nM and 9910 nM.
`CCCCc1nc2c(N)nc3cc(CCCN4CCN(Cc5ccc(NC(=O)[C@H](CCCNC(N)=O)NC(=O)[C@@H](NC(=O)COCCOCCNC(=O)O[C@H]6CC[C@@]7(C)C(=CC[C@H]8[C@@H]9CC[C@H]([C@H](C)CCCC(C)C)[C@@]9(C)CC[C@@H]87)C6)C(C)C)cc5)CC4)ccc3c2n1CC(C)(CO)CO` [Compound 29, (3beta)-cholest-5-en-3-yl ((6S,9S)-1-amino-6-((4-((4-(3-(4-amino-2-butyl-1-(3-hydroxy-2-(hydroxymethyl)-2-methylpropyl)-1H-imidazo[4,5-c]quinolin-7-yl)propyl)piperazin-1-yl)methyl)phenyl)carbamoyl)-9-isopropyl-1,8,11-trioxo-13,16-dioxa-2,7,10-triazaoctadecan-18-yl)carbamate]: the EC50 worked out at 527 nM in test [1] and 5030 nM in test [2].
Turning to `CCCCc1nc2c(N)nc3cc(CCCN4CCN(C(=O)CCOCCOCCOCCOCCOCCOCCOCCOCCNC(=O)O[C@H]5CC[C@@]6(C)C(=CC[C@H]7[C@@H]8CC[C@H]([C@H](C)CCCC(C)C)[C@@]8(C)CC[C@@H]76)C5)CC4)ccc3c2n1CC(C)(CO)CO` [Compound 19, (20R)-cholest-5-en-3beta-yl {27-[4-(3-{4-amino-2-butyl-1-[3-hydroxy-2-(hydroxymethyl)-2-methylpropyl]-1H-imidazo[4,5-c]quinolin-7-yl}propyl)piperazin-1-yl]-27-oxo-3,6,9,12,15,18,21,24-octaoxaheptacosan-1-yl}carbamate], the EC50 in test [1] turned out to be 362 nM; in test [2], 20200 nM.
